Values joined by “and” are separate entries in the source; they are usually repeats but may differ in a detail not shown here. Equal entries are not always repeated. Numbers after ± are expanded uncertainties.
What was measured:
[1] = molar heat capacity at constant pressure; conditions: 101.33 kPa, Large sample (1 g) DSC
[2] = Molar enthalpy of transition or fusion; conditions: Crystal; DSC
[3] = Crystal; DTA

## OC1CCC1 [cyclobutanol]
[1]; 258.09 K, Liquid
  molar heat capacity at constant pressure: 132.4 ± 2.3 J/K/mol and 132.7 ± 2.3 J/K/mol
[1]; 263.2 K, Liquid
  molar heat capacity at constant pressure: 134.8 ± 2.3 J/K/mol and 134.7 ± 2.3 J/K/mol
[1]; 268.3 K, Liquid
  molar heat capacity at constant pressure: 137 ± 2.4 J/K/mol and 137.2 ± 2.4 J/K/mol
[1]; 273.41 K, Liquid
  molar heat capacity at constant pressure: 139.4 ± 2.4 J/K/mol
[1]; 278.51 K, Liquid
  molar heat capacity at constant pressure: 141.8 ± 2.5 J/K/mol
[1]; 283.62 K, Liquid
  molar heat capacity at constant pressure: 144.6 ± 2.5 J/K/mol and 144.4 ± 2.5 J/K/mol
[1]; 288.72 K, Liquid
  molar heat capacity at constant pressure: 147.4 ± 2.6 J/K/mol and 147.3 ± 2.6 J/K/mol
[1]; 293.83 K, Liquid
  molar heat capacity at constant pressure: 150.5 ± 2.6 J/K/mol and 150.2 ± 2.6 J/K/mol
[1]; 298.93 K, Liquid
  molar heat capacity at constant pressure: 153.7 ± 2.7 J/K/mol and 153.8 ± 2.7 J/K/mol
[1]; 304.04 K, Liquid
  molar heat capacity at constant pressure: 157 ± 2.7 J/K/mol and 157.1 ± 2.7 J/K/mol
[1]; 309.14 K, Liquid
  molar heat capacity at constant pressure: 160.5 ± 2.8 J/K/mol
[1]; 314.25 K, Liquid
  molar heat capacity at constant pressure: 164.1 ± 2.8 J/K/mol and 164 ± 2.8 J/K/mol
[1]; 319.35 K, Liquid
  molar heat capacity at constant pressure: 168 ± 2.9 J/K/mol and 167.9 ± 2.9 J/K/mol
[1]; 324.46 K, Liquid
  molar heat capacity at constant pressure: 171.9 ± 3 J/K/mol and 171.6 ± 3 J/K/mol
[1]; 329.57 K, Liquid
  molar heat capacity at constant pressure: 175.4 ± 3 J/K/mol
[1]; 334.67 K, Liquid
  molar heat capacity at constant pressure: 179.4 ± 3.1 J/K/mol
[1]; 339.77 K, Liquid
  molar heat capacity at constant pressure: 183.6 ± 3.2 J/K/mol and 183.1 ± 3.2 J/K/mol
[1]; 344.88 K, Liquid
  molar heat capacity at constant pressure: 187.5 ± 3.2 J/K/mol and 187 ± 3.2 J/K/mol
[1]; 349.98 K, Liquid
  molar heat capacity at constant pressure: 191.6 ± 3.3 J/K/mol
[1]; 355.09 K, Liquid
  molar heat capacity at constant pressure: 195.6 ± 3.4 J/K/mol
[2]
  Molar enthalpy of transition or fusion: 1.89 ± 0.0884 kcal/mol
[3]
  Normal melting temperature: -45.61 ± 0.39 °C

## OC1CCCCCC1 [cycloheptanol]
[1]; 260.59 K, Crystal
  molar heat capacity at constant pressure: 195.3 ± 3.4 J/K/mol
[1]; 260.73 K, Crystal
  molar heat capacity at constant pressure: 195.4 ± 3.4 J/K/mol
[1]; 262 K, Crystal
  molar heat capacity at constant pressure: 196.4 ± 3.4 J/K/mol and 196.5 ± 3.4 J/K/mol
[1]; 264 K, Crystal
  molar heat capacity at constant pressure: 198 ± 3.4 J/K/mol and 198.1 ± 3.4 J/K/mol
[1]; 266 K, Crystal
  molar heat capacity at constant pressure: 199.8 ± 3.5 J/K/mol
[1]; 268 K, Crystal
  molar heat capacity at constant pressure: 201.8 ± 3.5 J/K/mol and 201.7 ± 3.5 J/K/mol
[1]; 270 K, Crystal
  molar heat capacity at constant pressure: 204 ± 3.5 J/K/mol
[1]; 271.34 K, Crystal
  molar heat capacity at constant pressure: 205.2 ± 3.6 J/K/mol
[1]; 271.43 K, Crystal
  molar heat capacity at constant pressure: 205.4 ± 3.6 J/K/mol
[1]; 286.01 K, Liquid
  molar heat capacity at constant pressure: 236.1 ± 4.1 J/K/mol
[1]; 286.13 K, Liquid
  molar heat capacity at constant pressure: 236.3 ± 4.1 J/K/mol
[1]; 290 K, Liquid
  molar heat capacity at constant pressure: 240.6 ± 4.2 J/K/mol
[1]; 295 K, Liquid
  molar heat capacity at constant pressure: 246.5 ± 4.3 J/K/mol
[1]; 300 K, Liquid
  molar heat capacity at constant pressure: 252.3 ± 4.4 J/K/mol
[1]; 305 K, Liquid
  molar heat capacity at constant pressure: 258.1 ± 4.5 J/K/mol and 258.2 ± 4.5 J/K/mol
[1]; 310 K, Liquid
  molar heat capacity at constant pressure: 263.8 ± 4.6 J/K/mol
[1]; 315 K, Liquid
  molar heat capacity at constant pressure: 269.4 ± 4.7 J/K/mol and 269.5 ± 4.7 J/K/mol
[1]; 320 K, Liquid
  molar heat capacity at constant pressure: 274.8 ± 4.8 J/K/mol and 274.9 ± 4.8 J/K/mol
[1]; 325 K, Liquid
  molar heat capacity at constant pressure: 280.3 ± 4.9 J/K/mol and 280.2 ± 4.9 J/K/mol
[1]; 330 K, Liquid
  molar heat capacity at constant pressure: 285.3 ± 4.9 J/K/mol and 285.2 ± 4.9 J/K/mol
[1]; 335 K, Liquid
  molar heat capacity at constant pressure: 289.9 ± 5 J/K/mol and 290 ± 5 J/K/mol
[1]; 340 K, Liquid
  molar heat capacity at constant pressure: 294.4 ± 5.1 J/K/mol
[1]; 345 K, Liquid
  molar heat capacity at constant pressure: 299.2 ± 5.2 J/K/mol
[1]; 350 K, Liquid
  molar heat capacity at constant pressure: 303.6 ± 5.3 J/K/mol
[1]; 354.82 K, Liquid
  molar heat capacity at constant pressure: 307.6 ± 5.3 J/K/mol
[1]; 355 K, Liquid
  molar heat capacity at constant pressure: 307.7 ± 5.3 J/K/mol
[1]; 357.82 K, Liquid
  molar heat capacity at constant pressure: 309.7 ± 5.4 J/K/mol

## OC1CCCCC1 [cyclohexanol]
[1]; 261.42 K, Crystal
  molar heat capacity at constant pressure: 162.6 ± 2.8 J/K/mol
[1]; 261.48 K, Crystal
  molar heat capacity at constant pressure: 162.8 ± 2.8 J/K/mol
[1]; 264 K, Crystal
  molar heat capacity at constant pressure: 164.5 ± 2.9 J/K/mol and 164.7 ± 2.9 J/K/mol
[1]; 267 K, Crystal
  molar heat capacity at constant pressure: 166.8 ± 2.9 J/K/mol and 167 ± 2.9 J/K/mol
[1]; 270 K, Crystal
  molar heat capacity at constant pressure: 169.1 ± 2.9 J/K/mol and 169.4 ± 2.9 J/K/mol
[1]; 273 K, Crystal
  molar heat capacity at constant pressure: 171.7 ± 3 J/K/mol and 172 ± 3 J/K/mol
[1]; 276 K, Crystal
  molar heat capacity at constant pressure: 174.5 ± 3 J/K/mol and 174.9 ± 3 J/K/mol
[1]; 279 K, Crystal
  molar heat capacity at constant pressure: 177.4 ± 3.1 J/K/mol and 177.9 ± 3.1 J/K/mol
[1]; 282 K, Crystal
  molar heat capacity at constant pressure: 180.8 ± 3.1 J/K/mol and 181.4 ± 3.1 J/K/mol
[1]; 284.5 K, Crystal
  molar heat capacity at constant pressure: 184.9 ± 3.2 J/K/mol
[1]; 284.95 K, Crystal
  molar heat capacity at constant pressure: 184.8 ± 3.2 J/K/mol
[1]; 305.05 K, Liquid
  molar heat capacity at constant pressure: 218.3 ± 3.8 J/K/mol
[1]; 305.18 K, Liquid
  molar heat capacity at constant pressure: 218.6 ± 3.8 J/K/mol
[1]; 310 K, Liquid
  molar heat capacity at constant pressure: 223.8 ± 3.9 J/K/mol and 224 ± 3.9 J/K/mol
[1]; 315 K, Liquid
  molar heat capacity at constant pressure: 229.6 ± 4 J/K/mol and 229.7 ± 4 J/K/mol
[1]; 320 K, Liquid
  molar heat capacity at constant pressure: 235.5 ± 4.1 J/K/mol and 235.3 ± 4.1 J/K/mol
[1]; 325 K, Liquid
  molar heat capacity at constant pressure: 241.3 ± 4.2 J/K/mol and 241.1 ± 4.2 J/K/mol
[1]; 330 K, Liquid
  molar heat capacity at constant pressure: 246.7 ± 4.3 J/K/mol and 246.8 ± 4.3 J/K/mol
[1]; 335 K, Liquid
  molar heat capacity at constant pressure: 252 ± 4.4 J/K/mol and 252.2 ± 4.4 J/K/mol
[1]; 340 K, Liquid
  molar heat capacity at constant pressure: 257.4 ± 4.5 J/K/mol and 257.6 ± 4.5 J/K/mol
[1]; 345 K, Liquid
  molar heat capacity at constant pressure: 262.8 ± 4.6 J/K/mol and 263 ± 4.6 J/K/mol
[1]; 350 K, Liquid
  molar heat capacity at constant pressure: 268 ± 4.6 J/K/mol
[1]; 355 K, Liquid
  molar heat capacity at constant pressure: 272.3 ± 4.7 J/K/mol and 272.5 ± 4.7 J/K/mol
[1]; 357.82 K, Liquid
  molar heat capacity at constant pressure: 274.7 ± 4.8 J/K/mol
[1]; 357.94 K, Liquid
  molar heat capacity at constant pressure: 274.7 ± 4.8 J/K/mol

## OC1CCCC1 [cyclopentanol]
[1]; 265.06 K, Liquid
  molar heat capacity at constant pressure: 157.6 ± 2.7 J/K/mol
[1]; 270 K, Liquid
  molar heat capacity at constant pressure: 160.7 ± 2.8 J/K/mol
[1]; 275 K, Liquid
  molar heat capacity at constant pressure: 164.2 ± 2.8 J/K/mol
[1]; 280 K, Liquid
  molar heat capacity at constant pressure: 167.8 ± 2.9 J/K/mol and 167.9 ± 2.9 J/K/mol
[1]; 285 K, Liquid
  molar heat capacity at constant pressure: 171.6 ± 3 J/K/mol and 171.7 ± 3 J/K/mol
[1]; 290 K, Liquid
  molar heat capacity at constant pressure: 175.7 ± 3 J/K/mol and 175.9 ± 3 J/K/mol
[1]; 295 K, Liquid
  molar heat capacity at constant pressure: 180 ± 3.1 J/K/mol and 180.1 ± 3.1 J/K/mol
[1]; 300 K, Liquid
  molar heat capacity at constant pressure: 184.3 ± 3.2 J/K/mol and 184.4 ± 3.2 J/K/mol
[1]; 305 K, Liquid
  molar heat capacity at constant pressure: 188.6 ± 3.3 J/K/mol and 188.7 ± 3.3 J/K/mol
[1]; 310 K, Liquid
  molar heat capacity at constant pressure: 193 ± 3.3 J/K/mol and 193.1 ± 3.3 J/K/mol
[1]; 315 K, Liquid
  molar heat capacity at constant pressure: 197.4 ± 3.4 J/K/mol and 197.6 ± 3.4 J/K/mol
[1]; 320 K, Liquid
  molar heat capacity at constant pressure: 201.8 ± 3.5 J/K/mol and 202 ± 3.5 J/K/mol
[1]; 325 K, Liquid
  molar heat capacity at constant pressure: 206.2 ± 3.6 J/K/mol and 206.4 ± 3.6 J/K/mol
[1]; 330 K, Liquid
  molar heat capacity at constant pressure: 210.5 ± 3.6 J/K/mol and 210.7 ± 3.7 J/K/mol
[1]; 335 K, Liquid
  molar heat capacity at constant pressure: 215 ± 3.7 J/K/mol and 215.1 ± 3.7 J/K/mol
[1]; 340 K, Liquid
  molar heat capacity at constant pressure: 219.5 ± 3.8 J/K/mol
[1]; 345 K, Liquid
  molar heat capacity at constant pressure: 223.8 ± 3.9 J/K/mol and 223.7 ± 3.9 J/K/mol
[1]; 350 K, Liquid
  molar heat capacity at constant pressure: 228.1 ± 4 J/K/mol and 228 ± 4 J/K/mol
[1]; 354.91 K, Liquid
  molar heat capacity at constant pressure: 232 ± 4 J/K/mol
[1]; 355 K, Liquid
  molar heat capacity at constant pressure: 232 ± 4 J/K/mol
[1]; 357.78 K, Liquid
  molar heat capacity at constant pressure: 234.1 ± 4.1 J/K/mol

Reference: the NIST ThermoML archive (doi:10.1016/j.tca.2014.10.002)
